Measured values reported in patent publication US8507409B2, “Synergistic combination of a glyphosate compound and DMITS” (Dow Global Technologies LLC, priority 2010, dated 2013).

Key:
Assay type in all cases: cell-based
[1] = test system: Trentepohlia aurea, Tretepohlia odorata, and Calotrix parientina; assay: Algal efficacy, dry paint film (Modified ASTM 5589), Cp + To + Ta pool; conditions: Cal-Tre; for Total conc in pppm: minimum inhibitory concentration chosen for SI calculation, NE=no end point
Description: (§1) Each sample was tested in duplicate.
(§2) In this synergy study, three pool of mixed algae were prepared as the test inoculum, Gloeocapsa sp. and Oscillatoria sp. a mix of cyanobacteria grown on BG-11 media; Chlorella sp., Chlorella kessleri, and Nostoc commune are unicellular chlorphytes that were mixed and grown on Bold media; Trentepohlia aurea, Tretepohlia odorata, and Calotrix parientina are filamentous algae that were mixed and grown on Bold media.
(§3) The plates were incubated at room temp (25° C.-26° C.) with cyclic exposure to light (OTT-Lite model # OTL4012P, 40 Watt, 26KLumen) and dark phases, for a period of four weeks. The total area covered was evaluated at the end of each week according to percent area covered in 5% increments.
(§4) The SI is calculated based on F. C.
(§5) SI value of <1 in the formula indicates a synergism of the blended biocides exists.
(§6) NE=no end point at the concentration tested that will meet the percent inhibition criteria set in each SI calculation.

[2] = test system: Chlorella sp., Chlorella kessleri, and Nostoc commune; assay: Algal efficacy, dry paint film (Modified ASTM 5589), Cs + Ck + Nc pool; conditions: Ch-No; for Total conc in pppm: minimum inhibitory concentration chosen for SI calculation, total actives in paint
Description: as §1, §2, §3, §4, §5, §6

[3] = test system: Aspergillus niger mixed with Penicillium funiculosum; assay: Fungal efficacy, dry paint film (Modified ASTM 5590), An + Pf pool; conditions: for Total conc in pppm: minimum inhibitory concentration chosen for SI calculation, total actives in paint
Description: as §1, §4, §5, §6

[4] = test system: Gloeocapsa sp. and Oscillatoria sp.; assay: Algal efficacy, dry paint film (Modified ASTM 5589), Gs + Os pool; conditions: Os-Gl; for Total conc in pppm: minimum inhibitory concentration chosen for SI calculation, total actives in paint
Description: as §1, §2, §3, §4, §5, §6

[5] = at the total conc listed for the same ratio

Compound | Total conc in pppm [1] [pppm] | Total conc in pppm [2] [pppm] | Total conc in pppm [3] [pppm] | Total conc in pppm [4] [pppm] | % Inhibition [1, 5] [%] | % Inhibition [2, 5] [%] | % Inhibition [3, 5] [%] | % Inhibition [4, 5] [%]
zinc glyphosate | 412.5 | 412.5 | 412.5 | 412.5 | – | – | – | –
Cc1ccc(S(=O)(=O)C(I)I)cc1 [DMITS, diiodomethyl-p-tolylsulfone] | 3300 | 2475 | 825 | 3300 | 20 | 80 | 80 | 20
